# Patent publication US10265276B2, “Pharmaceutical composition for preventing or treating arthritis or inflammatory disease containing 2-methoxy-4-(3-(4-methoxyphenyl)propyl-1-en-1-yl)phenol as active ingredient” (CHUNGBUK NATIONAL UNIVERSITY INDUSTRY-ACADEMIC COOPERATION …, priority 2015, dated 2019)
# Where two headings read alike, the source gives them in different places.
# Columns and labels:
# [1] = target: T1, STAT3 (Mus musculus, UniProt P42227); experiment: Pull-down assay, MMPP conjugated to Sepharose 6B beads; assay type: binding; settings: recombinant STAT3 protein and cell lysate containing STAT3 from RAW 264.7 cells
# T1 construct: a cell lysate containing a recombinant STAT3 protein or a STAT3 protein; endogenous in cells; host or cells: RAW 264.7
# Description: (§1) As a method for isolating a protein complex, a pull-down assay is an assay for checking a protein-protein interaction. To identify a protein interacting with MMPP, MMPP was bound to […] epoxy-activated Sepharose 6B (Sigma, St Louis, Mo., United States).
# To check the interaction between MMPP and STAT3, a pull-down assay was carried out. MMPP was conjugated to epoxy-activated Sepharose 6B. A pull-down assay was performed using an interaction between a cell lysate containing a recombinant STAT3 protein or a STAT3 protein and MMPP conjugated to Sepharose 6B beads. […] Referring to FIG. 2(D), it can also be seen that the binding of MMPP to mutant STAT3 Thr456A was reduced, compared to the STAT3.
# [2] = tested on: STAT3; experiment: Effect of STAT3 siRNA or STAT3 inhibitor on the effect of MMPP in LPS-treated RAW 264.7 cells; assay type: cell-based, mouse; set-up: dose or concentration left out as unconfirmed
# Description: 11. Luciferase activity assay: RAW264.7 cells added to a 24-well plate at a density of 1×10^5 cells/well. After 90% confluence, the cells were transiently infected with STAT3 siRNA (Santa Cruz Biotechnology) or a mutant STAT3 (T456A) plasmid using a mixture of STAT3 siRNA (Santa Cruz Biotechnology) or a mutant STAT3 (T456A) plasmid and WelFect-EX PLUS in OPTI-MEN. The infected cells were treated with LPS (1 μg/mL) and different concentrations of MMPP (1 to 4 μg/mL) for 12 hours. The luciferase activity was measured using a luciferase assay kit (Promega, Madison, Wis., USA).
# First, a protective effect of MMPP on the LPS-induced pro-inflammatory response was tested using RAW 264.7 cells infected with STAT3 siRNA.
# The RAW 264.7 cells were infected with STAT3 siRNA. After 24 hours, the infected cells were then treated with […] of LPS alone or in combination with MMPP. Thereafter, the NO generation, the iNOS and COX2 expression, and the DNA binding activity of NF-κB were measured.
# Next, it was examined whether an effect of a STAT3 inhibitor in RAW 264.7 cells was limited. RAW 264.7 cells were treated with a STAT3 inhibitor […] alone or in combination with MMPP, and the NO generation, the iNOS and COX2 expression, and the DNA binding activity of NF-κB were also measured.
# [3] = tested on: iNOS and COX-2; experiment: Western blotting of iNOS and COX-2 expression in LPS-induced RAW 264.7 cells; assay type: cell-based, mouse; set-up: dose or concentration left out as unconfirmed; settings: LPS and MMPP
# [4] = target: T2, mutant STAT3 (T456A) (Mus musculus, UniProt P42227, T456A); experiment: Pull-down assay with mutant STAT3; assay type: binding; settings: compared to the STAT3
# T2 construct: A coding region of Mus musculus STAT3 was amplified by PCR using full-length Mus musculus STAT3 cDNA as a template; host or cells: RAW264.7
# Text: as §1
# 2. Construction of plasmid: A coding region of Mus musculus STAT3 was amplified by PCR using full-length Mus musculus STAT3 cDNA as a template. The purified PCR product was doubly digested with EcoRI and XhoI, and then subcloned into a pcDNA3.1 vector. The pcDNA3.1 plasmid includes a cytomegalovirus promoter, a pUC origin of replication, and an ampicillin-resistant gene. STAT3 (T456A) mutagenesis was performed at Cosmo Genetech Co., Ltd. (Seoul, Korea), and the mutations were systematically checked by sequencing. RAW264.7 cells were seeded in a 24-well plate at a density of 1×10^5 cells/well. The cells were grown for 24 hours to reach 90% confluence, and the cells were infected with the mutant STAT3 (T456A) plasmid (Cosmo Genetech Co., Ltd., Seoul, Korea) using a mixture of the plasmid and lipofectamine in PTI-MEN. The infected cells were treated with LPS (1 μg/mL), and different concentrations of MMPP (1 to 4 μg/mL) for 12 hours. The prepared samples were subjected to Western blotting.
# To check the interaction between MMPP and STAT3, a pull-down assay was carried out. MMPP was conjugated to epoxy-activated Sepharose 6B. […]
# T2 sequence (P42227 whole entry T456A): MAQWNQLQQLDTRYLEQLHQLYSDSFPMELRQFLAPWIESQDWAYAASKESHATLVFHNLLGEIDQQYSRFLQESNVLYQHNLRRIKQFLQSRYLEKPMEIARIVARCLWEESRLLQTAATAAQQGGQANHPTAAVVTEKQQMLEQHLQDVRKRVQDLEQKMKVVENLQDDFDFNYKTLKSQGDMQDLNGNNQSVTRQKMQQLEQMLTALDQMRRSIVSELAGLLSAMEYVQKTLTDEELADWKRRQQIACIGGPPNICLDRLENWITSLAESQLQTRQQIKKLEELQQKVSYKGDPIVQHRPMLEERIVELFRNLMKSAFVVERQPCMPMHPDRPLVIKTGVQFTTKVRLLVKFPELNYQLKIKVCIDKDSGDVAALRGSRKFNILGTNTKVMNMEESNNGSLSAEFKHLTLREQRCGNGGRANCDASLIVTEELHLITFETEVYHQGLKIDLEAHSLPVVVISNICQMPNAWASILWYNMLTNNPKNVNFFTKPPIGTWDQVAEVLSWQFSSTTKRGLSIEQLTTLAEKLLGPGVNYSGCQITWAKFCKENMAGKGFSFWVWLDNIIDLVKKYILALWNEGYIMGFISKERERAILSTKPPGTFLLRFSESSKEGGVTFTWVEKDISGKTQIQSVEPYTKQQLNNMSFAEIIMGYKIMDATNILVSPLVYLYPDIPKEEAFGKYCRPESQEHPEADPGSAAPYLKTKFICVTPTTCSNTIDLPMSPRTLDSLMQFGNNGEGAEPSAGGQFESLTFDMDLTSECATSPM
# T1 sequence (P42227 whole entry): as the sequence (P42227 whole entry T456A) above, with A456T counted along it
compound,measurement,setting,value
"COc1ccc(C/C=C/c2ccc(O)c(OC)c2)cc1 [MMPP, 2-methoxy-4-(3-(4-methoxyphenyl)prop-1-en-1-yl)phenol]",interaction with STAT3 in pull-down assay,[1],mediated the interaction
same,"inhibitory effect of MMPP on LPS-induced NO generation, iNOS and COX2 expression, and NF-κB activity",[2],completely limited
same,"inhibitory effect of MMPP on LPS-induced NO generation, iNOS and COX2 expression, and NF-κB activity",[2]; STAT3 knock-down cells (STAT3 siRNA),limited
same,iNOS and COX-2 expression,[3],reduced in a concentration-dependent manner
same,binding of MMPP to mutant STAT3 Thr456A,[4],reduced
